Legend:
[1] = test system: HCV genotype 1a (H77 strain) replicon in HUH-7 cells; assay: HCV replicon luciferase reporter assay, genotype 1a; type: cell-based; conditions: Hepatitis C virus, Huh-7, 72 h, HCV genotype 1a replicon luciferase assay, 3 days incubation, range class, read-out: LE_1a (EC50, range)
Procedure, shortened: (§1)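 Replicon inhibition for both genotypes was measured as Renilla luciferase signal (EnduRen, 7.5 μM final, 2 h) after 3-day, 37° C exposure of replicon-bearing HUH-7 cells in 4% FCS DMEM, 0.5% DMSO. The 1b construct carries S1179I; the 1a H77 construct carries P1496L and S2204I. Twenty-point, 3-fold dilutions were fitted four-parametrically for EC50, and CC50 was taken from multiplexed Cell Titer-Blue.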

[2] = test system: HCV genotype 1b (Con1) replicon in HUH-7 cells; assay: HCV replicon luciferase reporter assay, genotype 1b; type: cell-based; conditions: Hepatitis C virus, Huh-7, 72 h, HCV genotype 1b replicon luciferase assay, 3 days incubation, range class, read-out: LE_1b (EC50, range)
Procedure, shortened: as §1

For `COc1ccc2c(O[C@@H]3C[C@H]4C(=O)N[C@]5(C(=O)NS(=O)(=O)C6CC6)C[C@H]5/C=C\CC[C@H](C)C[C@@H](C)[C@H](NC(=O)OC(C)(C)C(F)(F)F)C(=O)N4C3)nc(N3CCOCC3)cc2c1` [Compound 3098, 1,1,1-trifluoro-2-methylpropan-2-yl((2R,6S,7R,9S,13aS,14aR,16aS,Z)-14a-((cyclopropylsulfonyl)carbamoyl)-2-((6-methoxy-3-morpholinoisoquinolin-1-yl)oxy)-7,9-dimethyl-5,16-dioxo-1,2,3,5,6,7,8,9,10,11,13a,14,14a,15,16,16a-hexadecahydrocyclopropa[e]pyrrolo[1,2-a][1,4]diazacyclopentadecin-6-yl)carbamate], the EC50 [1] was < 5.46 nM and the EC50 [2] was < 5.46 nM.

`COc1ccc2c(O[C@@H]3C[C@H]4C(=O)N[C@]5(C(=O)NS(=O)(=O)C6CC6)C[C@H]5/C=C\CC[C@@H](C)C[C@@H](C)[C@H](NC(=O)OC(C)(C)C(F)(F)F)C(=O)N4C3)nc(N3CCOCC3)cc2c1` [Compound 3099, 1,1,1-trifluoro-2-methylpropan-2-yl((2R,6S,7R,9R,13aS,14aR,16aS,Z)-14a-((cyclopropylsulfonyl)carbamoyl)-2-((6-methoxy-3-morpholinoisoquinolin-1-yl)oxy)-7,9-dimethyl-5,16-dioxo-1,2,3,5,6,7,8,9,10,11,13a,14,14a,15,16,16a-hexadecahydrocyclopropa[e]pyrrolo[1,2-a][1,4]diazacyclopentadecin-6-yl)carbamate] was tested, and the EC50 [1] was < 5.46 nM and the EC50 [2] was < 5.46 nM.

With `[2H]C([2H])([2H])C(OC(=O)N[C@@H]1C(=O)N2C[C@H](Oc3nc(N4CCOCC4)cc4cc(OC)ccc34)C[C@H]2C(=O)N[C@]2(C(=O)NS(=O)(=O)C3CC3)C[C@H]2/C=C\CC[C@H](C)C[C@H]1C)(C([2H])([2H])[2H])C(F)(F)F` [Compound 3100, 1,1,1,3,3,3-hexadeutero-2-(trifluoromethyl)propan-2-yl((2R,6S,7R,9S,13aS,14aR,16aS,Z)-14a-((cyclopropylsulfonyl)carbamoyl)-2-((6-methoxy-3-morpholinoisoquinolin-1-yl)oxy)-7,9-dimethyl-5,16-dioxo-1,2,3,5,6,7,8,9,10,11,13a,14,14a,15,16,16a-hexadecahydrocyclopropa[e]pyrrolo[1,2-a][1,4]diazacyclopentadecin-6-yl)carbamate] the EC50 [1] was < 5.46 nM and the EC50 [2] was < 5.46 nM.

`[2H]C([2H])([2H])C(OC(=O)N[C@@H]1C(=O)N2C[C@H](Oc3nc(N4CCOCC4)cc4cc(OC)ccc34)C[C@H]2C(=O)N[C@]2(C(=O)NS(=O)(=O)C3CC3)C[C@H]2/C=C\CC[C@@H](C)C[C@H]1C)(C([2H])([2H])[2H])C(F)(F)F` [Compound 3101, 1,1,1,3,3,3-hexadeutero-2-(trifluoromethyl)propan-2-yl((2R,6S,7R,9R,13aS,14aR,16aS,Z)-14a-((cyclopropylsulfonyl)carbamoyl)-2-((6-methoxy-3-morpholinoisoquinolin-1-yl)oxy)-7,9-dimethyl-5,16-dioxo-1,2,3,5,6,7,8,9,10,11,13a,14,14a,15,16,16a-hexadecahydrocyclopropa[e]pyrrolo[1,2-a][1,4]diazacyclopentadecin-6-yl)carbamate] was tested, and the EC50 [1] was < 5.46 nM and the EC50 [2] was < 5.46 nM.

For `COc1ccc2c(O[C@@H]3C[C@H]4C(=O)N[C@]5(C(=O)NS(=O)(=O)C6CC6)C[C@H]5/C=C\CC[C@H](C)C[C@@H](C)[C@H](NC(=O)O[C@H](C)C(F)(F)F)C(=O)N4C3)nc(N3CCOCC3)cc2c1` [Compound 3102, (R)-1,1,1-trifluoropropan-2-yl ((2R,6S,7R,9S,13aS,14aR,16aS,Z)-14a-((cyclopropylsulfonyl)carbamoyl)-2-((6-methoxy-3-morpholinoisoquinolin-1-yl)oxy)-7,9-dimethyl-5,16-dioxo-1,2,3,5,6,7,8,9,10,11,13a,14,14a,15,16,16a-hexadecahydrocyclopropa[e]pyrrolo[1,2-a][1,4]diazacyclopentadecin-6-yl)carbamate], the EC50 [1] was 4.82 to 103 nM and the EC50 [2] was < 5.46 nM.

With `COc1ccc2c(O[C@@H]3C[C@H]4C(=O)N[C@]5(C(=O)NS(=O)(=O)C6CC6)C[C@H]5/C=C\CC[C@@H](C)C[C@@H](C)[C@H](NC(=O)O[C@H](C)C(F)(F)F)C(=O)N4C3)nc(N3CCOCC3)cc2c1` [Compound 3103, (R)-1,1,1-trifluoropropan-2-yl ((2R,6S,7R,9R,13aS,14aR,16aS,Z)-14a-((cyclopropylsulfonyl)carbamoyl)-2-((6-methoxy-3-morpholinoisoquinolin-1-yl)oxy)-7,9-dimethyl-5,16-dioxo-1,2,3,5,6,7,8,9,10,11,13a,14,14a,15,16,16a-hexadecahydrocyclopropa[e]pyrrolo[1,2-a][1,4]diazacyclopentadecin-6-yl)carbamate] the EC50 [1] was < 5.46 nM and the EC50 [2] was < 5.46 nM.

Work on `COc1ccc2c(O[C@@H]3C[C@H]4C(=O)N[C@]5(C(=O)NS(=O)(=O)C6CC6)C[C@H]5/C=C\CC[C@H](C)C[C@@H](C)[C@H](NC(=O)O[C@@H]5C[C@@H]6C[C@@H]6C5)C(=O)N4C3)nc(N3CCOCC3)cc2c1` [Compound 3104, (1R,3r,5S)-bicyclo[3.1.0]hexan-3-yl((2R,6S,7R,9S,13aS,14aR,16aS,Z)-14a-((cyclopropylsulfonyl)carbamoyl)-2-((6-methoxy-3-morpholinoisoquinolin-1-yl)oxy)-7,9-dimethyl-5,16-dioxo-1,2,3,5,6,7,8,9,10,11,13a,14,14a,15,16,16a-hexadecahydrocyclopropa[e]pyrrolo[1,2-a][1,4]diazacyclopentadecin-6-yl)carbamate] yielded an EC50 [1] of 4.82 to 103 nM and an EC50 [2] of 4.82 to 103 nM.

With `COc1ccc2c(O[C@@H]3C[C@H]4C(=O)N[C@]5(C(=O)NS(=O)(=O)C6CC6)C[C@H]5/C=C\CC[C@@H](C)C[C@@H](C)[C@H](NC(=O)O[C@@H]5C[C@@H]6C[C@@H]6C5)C(=O)N4C3)nc(N3CCOCC3)cc2c1` [Compound 3105, (1R,3r,5S)-bicyclo[3.1.0]hexan-3-yl((2R,6S,7R,9R,13aS,14aR,16aS,Z)-14a-((cyclopropylsulfonyl)carbamoyl)-2-((6-methoxy-3-morpholinoisoquinolin-1-yl)oxy)-7,9-dimethyl-5,16-dioxo-1,2,3,5,6,7,8,9,10,11,13a,14,14a,15,16,16a-hexadecahydrocyclopropa[e]pyrrolo[1,2-a][1,4]diazacyclopentadecin-6-yl)carbamate] the EC50 [1] was < 5.46 nM and the EC50 [2] was < 5.46 nM.

Work on `COc1ccc2c(O[C@@H]3C[C@H]4C(=O)N[C@]5(C(=O)NS(=O)(=O)C6CC6)C[C@H]5/C=C\CC[C@H](C)C[C@@H](C)[C@H](NC(=O)OC(C)(C)C)C(=O)N4C3)nc(N3CCOCC3)cc2c1` [Compound 3106, tert-butyl ((2R,6S,7R,9S,13aS,14aR,16aS,Z)-14a-((cyclopropylsulfonyl)carbamoyl)-2-((6-methoxy-3-morpholinoisoquinolin-1-yl)oxy)-7,9-dimethyl-5,16-dioxo-1,2,3,5,6,7,8,9,10,11,13a,14,14a,15,16,16a-hexadecahydrocyclopropa[e]pyrrolo[1,2-a][1,4]diazacyclopentadecin-6-yl)carbamate] yielded an EC50 [1] of 4.82 to 103 nM and an EC50 [2] of 4.82 to 103 nM.

`COc1ccc2c(O[C@@H]3C[C@H]4C(=O)N[C@]5(C(=O)NS(=O)(=O)C6CC6)C[C@H]5/C=C\CC[C@@H](C)C[C@@H](C)[C@H](NC(=O)OC(C)(C)C)C(=O)N4C3)nc(N3CCOCC3)cc2c1` [Compound 3107, tert-butyl ((2R,6S,7R,9R,13aS,14aR,16aS,Z)-14a-((cyclopropylsulfonyl)carbamoyl)-2-((6-methoxy-3-morpholinoisoquinolin-1-yl)oxy)-7,9-dimethyl-5,16-dioxo-1,2,3,5,6,7,8,9,10,11,13a,14,14a,15,16,16a-hexadecahydrocyclopropa[e]pyrrolo[1,2-a][1,4]diazacyclopentadecin-6-yl)carbamate] was tested, and the EC50 [1] was < 5.46 nM and the EC50 [2] was < 5.46 nM.

For `COc1ccc2c(O[C@@H]3C[C@H]4C(=O)N[C@]5(C(=O)NS(=O)(=O)C6(C)CC6)C[C@H]5/C=C\CC[C@H](C)C[C@@H](C)[C@H](NC(=O)OC(C)(C)C)C(=O)N4C3)nc(N(C)C)cc2c1` [Compound 3108, tert-butyl ((2R,6S,7R,9S,13aS,14aR,16aS,Z)-2-((3-(dimethylamino)-6-methoxyisoquinolin-1-yl)oxy)-7,9-dimethyl-14a-(((1-methylcyclopropyl)sulfonyl)carbamoyl)-5,16-dioxo-1,2,3,5,6,7,8,9,10,11,13a,14,14a,15,16,16a-hexadecahydrocyclopropa[e]pyrrolo[1,2-a][1,4]diazacyclopentadecin-6-yl)carbamate], the EC50 [1] was 4.82 to 103 nM and the EC50 [2] was 4.82 to 103 nM.

Work on `COc1ccc2c(O[C@@H]3C[C@H]4C(=O)N[C@]5(C(=O)NS(=O)(=O)C6(C)CC6)C[C@H]5/C=C\CC[C@@H](C)C[C@@H](C)[C@H](NC(=O)OC(C)(C)C)C(=O)N4C3)nc(N(C)C)cc2c1` [Compound 3109, tert-butyl ((2R,6S,7R,9R,13aS,14aR,16aS,Z)-2-((3-(dimethylamino)-6-methoxyisoquinolin-1-yl)oxy)-7,9-dimethyl-14a-(((1-methylcyclopropyl)sulfonyl)carbamoyl)-5,16-dioxo-1,2,3,5,6,7,8,9,10,11,13a,14,14a,15,16,16a-hexadecahydrocyclopropa[e]pyrrolo[1,2-a][1,4]diazacyclopentadecin-6-yl)carbamate] yielded an EC50 [1] of 4.82 to 103 nM and an EC50 [2] of 4.82 to 103 nM.
